This is an account of results in ChEMBL document CHEMBL1151103, “Studies on cytotoxic constituents in pericarps of Mallotus japonicus, Part III” (1988).

In brackets after ≈: the same amount, converted by molar mass.

In the experiment the test system is KB. The experiment is described as follows: Cytotoxicity against human KB cells. Conditions: read-out: ED50 (the source's name). Type of experiment: functional.
Consider `CCCC(=O)c1c(O)c(Cc2c(OC)c(C)c(O)c(C(C)=O)c2OC)c(OC)c2c1OC(C)(C)C=C2`, for which the EC50 turned out to be 5.9 µg/mL (≈ 11.8 µM).

For `CCCC(=O)c1c2c(c(OC(C)=O)c(Cc3c(OC)c(C)c(OC(C)=O)c(C(C)=O)c3OC(C)=O)c1OC(C)=O)C=CC(C)(C)O2`, the EC50 turned out to be 2.55 µg/mL (≈ 3.99 µM).

As for `COc1c(C)c(O)c(C(C)=O)c(OC)c1Cc1c(O)c(C(=O)C(C)C)c2c(c1OC)C=CC(C)(C)O2`, the EC50 came to 5.5 µg/mL (≈ 11 µM).

Take `COc1c(C)c(OC(C)=O)c(C(C)=O)c(OC(C)=O)c1Cc1c(OC(C)=O)c2c(c(C(=O)C(C)C)c1OC(C)=O)OC(C)(C)C=C2`: the EC50 came to 2.65 µg/mL (≈ 4.15 µM).

As to `CCCC(=O)c1c(O)c(Cc2c(O)c(C(C)=O)c(O)c(C)c2OC)c(O)c2c1OC(C)(C)C=C2` [BUTYRYLMALLOTOCHROMENE], the EC50 is 3.3 µg/mL (≈ 7.01 µM).

Regarding `COc1c(C)c(O)c(C(C)=O)c(O)c1Cc1c(O)c2c(c(C(=O)C(C)C)c1O)OC(C)(C)C=C2` [ISOBUTYRYLMALLOTOCHROMENE], the EC50 stood at 0.4 µg/mL (≈ 0.85 µM).
